In patent US9549978B2, “Amino acid sequences for controlling pathogens” (CENTRO DE INGENIERIA GENETICA Y BIOTECHNOLOGIA, priority 2011, dated 2017):

Key:
[1] = system: A. hydrophila (Gram−); test: Microdilution antimicrobial activity (MIC/IC50); assay type: cell-based
Method: (§1) The peptides of the invention were also obtained by chemical synthesis using methods known to those skilled in this technical field. The antimicrobial activity of the peptides was determined by the microdilution method. To determine the minimum inhibitory concentration (MIC), each peptide was serially diluted 1:2. Ten microliters of each diluted peptide were incubated with 90 μL of the bacteria or yeast suspension (5×10^5 CFU (colony forming units) per mL) in Mueller Hinton broth (bacteria) or Sabouraund broth (fungi) and incubated for 18 h at 28° C. (for fish pathogens and fungi) or 37° C. (for mammalian pathogens). The MIC is defined as the lowest peptide concentration at which inhibition of bacterial growth occurs. All assays were performed in triplicate, and culture medium (without microorganism) and microorganisms to which no peptide was added were used as controls.

[2] = system: Bacillus subtilis (Gram+); test: Microdilution antimicrobial activity (MIC/IC50); assay type: cell-based; conditions: for IC50: read-out: IC50 (peptide concentration that produces 50% of bacterial growth inhibition)
Method: as §1

[3] = system: Candida albicans (fungus); test: Microdilution antimicrobial activity (MIC/IC50); assay type: cell-based; conditions: for MIC: Sabouraund broth, 28° C.; for IC50: read-out: IC50 (peptide concentration that produces 50% of bacterial growth inhibition)
Method: as §1

[4] = system: E.coli (Gram−); test: Microdilution antimicrobial activity (MIC/IC50); assay type: cell-based; conditions: for IC50: read-out: IC50 (peptide concentration that produces 50% of bacterial growth inhibition)
Method: as §1

[5] = system: Edwardsiella tarda (Gram−); test: Microdilution antimicrobial activity (MIC/IC50); assay type: cell-based; conditions: for IC50: read-out: IC50 (peptide concentration that produces 50% of bacterial growth inhibition)
Method: as §1

[6] = system: Pseudomonas aeuroginosa (Gram−); test: Microdilution antimicrobial activity (MIC/IC50); assay type: cell-based; conditions: for IC50: read-out: IC50 (peptide concentration that produces 50% of bacterial growth inhibition)
Method: as §1

[7] = system: Staphylococcus aureus (Gram+); test: Microdilution antimicrobial activity (MIC/IC50); assay type: cell-based; conditions: for MIC: 18 h, Mueller Hinton broth; for IC50: read-out: IC50 (peptide concentration that produces 50% of bacterial growth inhibition)
Method: as §1

[8] = system: Vibrio sp. (Gram−); test: Microdilution antimicrobial activity (MIC/IC50); assay type: cell-based; conditions: for IC50: read-out: IC50 (peptide concentration that produces 50% of bacterial growth inhibition)
Method: as §1

[9] = system: Aeromonas hydrophila; test: Resistance to A. hydrophila challenge in tilapia, peptides by intraperitoneal injection; assay type: in vivo, tilapia (O. niloticus); conditions: LD50 challenge, mortality recorded 7 days, compared to PBS group
Method: We proceeded to evaluate the utility of antimicrobial peptides to enhance disease resistance in vivo. In a first test, we used 130 tilapias (O. niloticus) with a body weight of 10 g, which were randomly distributed in 13 experimental groups of ten animals per group. This assay was performed in order to determine the minimum time of treatment required to enhance the survival of fish against challenge with A. hydrophila. Each peptide was administered at a concentration of 1 μg per fish by intraperitoneal injection, for 2, 4, 8 and 15 days. An additional group was placed which PBS was administered as a control. The experimental groups were:
After the time of peptide administration, we performed a challenge test by intraperitoneal injection of the median lethal dose (LD50) of A. hydrophila, and mortality was recorded during 7 days. We calculated the relative percent of survival (RPS) as: RPS (%)=(% mortality controls−% mortality treated)/(% mortality controls)×100
A second test was performed to determine the optimal dose of peptide required to increase the survival of the fish following challenge with A. hydrophila. We used 130 tilapias (O. niloticus), with a body weight of about 10 g, which were randomly distributed in 13 experimental groups of 10 animals each. Each peptide was administered at a concentration of 0.5, 1, 5 and 10 μg per fish for 15 days. The experimental groups were:
After 15 days of peptide administration, we performed a challenge test by is intraperitoneal injection of the LD50 of A. hydrophila, and mortality was recorded during 7 days. RPS was calculated as described above.

[10] = read-out: EC50 (LPS binding/neutralization); 0.5 EU/ml LPS, 37° C., 30 min, LAL
Method: Besides the antimicrobial activity and the possibility of increase disease resistance, we studied the ability of antimicrobial peptides of the present invention to neutralize LPS, by the Limulus amebocyte lysate (LAL) test. This assay detects the presence of free LPS unneutralized. Various concentrations of peptides were incubated with 0.5 EU/ml of LPS at 37° C. for 30 min. LPS alone was used as positive control of the assay. Subsequently, were added 100 μL of the mixture to equal volume of LAL reagent. The kinetic of the turbidity was measured using the equipment Tube Reader ATi-321 (Lab Kinetics, UK).

[11] = system: OVA; test: Cytokine secretion by OVA-stimulated splenocytes of immunized mice, ELISA; assay type: in vivo, BALB/c mice
Method: FIG. 8. IFN-γ secretion by spleen cells isolated from immunized animals. […] Bars represent the concentration of IFN-γ±standard deviation (n=5). Statistical analysis of the data was performed by ANOVA test and Bonferroni's multiple comparison test (*: p<0.05, ***:p<0.001).
Animals were immunized on days 0 and 14, and blood extractions were performed on days 0, 14 and 21. The serums of animals were used for determination of specific antibody titers (total IgG, IgG1 and IgG2a). At 59 days from the beginning of the experiment was extracted the spleen from the mice to determine the cellular immune response against the antigen OVA. The spleen was extracted under aseptic conditions and the splenocytes were isolated and were seeded 2.5×10^5 cells, at a cell concentration of 2×10^6 cells/mL in 96-well round bottom plate. Cells were stimulated with Concanavalin A (5 μg/ml) or OVA (10 μg/mL) and incubated at 37° C., 5% CO2 for 4 days. Culture supernatants were collected and used for analysis of the levels of interleukin-4 and interferon-γ by ELISA.

[12] = system: OVA; test: Co-immunization with OVA in mice, second immunization schedule, antibody titers by ELISA; assay type: in vivo, BALB/c mice
Method: FIG. 7. Titers of total immunoglobulin G (IgG) (A), IgG1 and IgG2a (B) induced in mice by immunization with OVA co-administered with the peptides Oreochromicin I, Oreochromicin II and Oreochromicin III. Male Balb/c mice (8/group) were immunized by intraperitoneal injection on days 0 and 14 with OVA alone (5 μg/animal) or in combination with peptides at the doses of 0.238×10^20 molecules/animal (equivalent to 0.1, 0.12 and 0.14 μg/animal for Oreochromicina I, II and III, respectively) and 2.38×10^20 molecules/animal (equivalent to 1, 1.2 and 1.4 μg/animal for Oreochromicina I, II and III, respectively). The negative control group was injected with 0.1 mL of PBS. The OVA-specific humoral immune response (total IgG) was tested at 14 and 21 days after the first immunization. IgG1 and IgG2a antibody titers were analyzed at 21 days after the first immunization. The OVA-specific antibody titers were determined by ELISA. (A) Total IgG titers. Bars represent the IgG titer standard error (n=8). Statistical analysis was performed using a Kruskal-Wallis test and the Dunn multiple comparison test. Asterisks represent significant differences with the PBS group (* indicates p<0.05, ***indicates p<0.001). (B) IgG1 and IgG2a titers. Bars represent the antibody titer±standard error (n=8). Statistical analysis was performed using Mann Whitney test (*denotes p<0.05).
64 BALB/c male mice were selected, which were 6 weeks old, and were separated into 8 experimental groups of 8 mice each. Administration of the immunogens was is conducted by intraperitoneal injection in a volume of 0.1 mL. The antimicrobial peptides were administered in equimolar amounts (0.238×10^20 molecules and 2.38×10^20 molecules). The experimental groups were:
Animals were immunized on days 0 and 14, and blood extractions were performed on days 0, 14 and 21. The serums of animals were used for determination of specific antibody titers (total IgG, IgG1 and IgG2a). At 59 days from the beginning of the experiment was extracted the spleen from the mice to determine the cellular immune response against the antigen OVA. […]

[13] = system: MY32; test: Co-immunization with MY32 antigen in tilapia, IgM titers by ELISA; assay type: in vivo, tilapia (O. niloticus); conditions: MY32 1 μg/g + peptide 10 μg/animal, adjuvanted in Montanide 888; p<0.05
Method: FIG. 9. IgM titers induced by immunization of tilapia (O. niloticus) with MY32 protein co-administered with the antimicrobial peptide Oreochromicin I. Fish (10 fish/group) were immunized by intraperitoneal injection on days 0 and 14. The negative control group was injected with 0.3 mL of PBS. The humoral immune response specific for MY32 was analyzed at 14, 21 and 28 days after the first immunization. The IgM antibody titers specific for MY32 were determined by ELISA. Bars represent the IgM titer±standard error (n=10). Statistical analysis of the data was performed by ANOVA and the Newman-Keuls multiple comparison test (*indicates p<0.05).
To assess the ability of the peptide Oreochromicin I as molecular adjuvant in tilapia was used as vaccine antigen the protein MY32, previously known (Carpio et al. (2011) Vaccine 29: 2810-2820).
Six experimental groups were formed of 10 tilapias (O. niloticus) each with an s average weight of 45 g. The route of administration was intraperitoneal, the immunogen was applied in an injection volume of 0.3 mL. The experimental groups were:
The animals were immunized on days 0 and 14, and blood extractions were performed on days 0, 14, 21 and 28. The serums of the animals were used for the determination of IgM specific antibody titers.

| Sequence | MIC [1] | MIC [2] | IC50 [2] [µM] | MIC [3] | IC50 [3] [µM] | MIC [4] | IC50 [4] [µM] | MIC [5] | IC50 [5] [µM] | MIC [6] | IC50 [6] [µM] | MIC [7] | IC50 [7] [µM] | MIC [8] | IC50 [8] [µM] | EC50 [10] [µM] | increase in survival (RPS, relative percent of survival) ([9]; 1 μg per fish i.p. for 15 days) [%] | also measured |
| --- | --- | --- | --- | --- | --- | --- | --- | --- | --- | --- | --- | --- | --- | --- | --- | --- | --- | --- |
| FIHHIIGGLFSAGKAIHRLIRRRRR [Oreochromicin II, also recombinant or chemically synthesized] | MIC = 160 μM | MIC = 1.7 μM | 0.589 | MIC = 26.7 μM | 12.9 | MIC = 5 μM | 2.29 | MIC = 20 μM | 2.08 | MIC = 6.67 μM | 3.75 | MIC = 5 μM | 2.02 | MIC = 15 μM | 2.5 | 1.41 |  | IC50 ([1]; read-out: IC50 (peptide concentration that produces 50% of bacterial growth inhibition)): 30.4 µM; increase in survival (RPS, relative percent of survival) ([9]; 1 μg per fish i.p. for 8 days): 48%; levels of secretion of IFN-γ vs OVA or PBS alone ([11]; splenocytes stimulated with OVA, peptide 1.2 μg/animal, p<0.05): significantly higher |
| FIHHIIGGLFSVGKHIHGLIHGH [Oreochromicin I, also recombinant or chemically synthesized] | Did not inhibit | MIC = 3 μM | 1.37 | MIC = 20 μM | 10.3 | MIC = 6.7 μM | 2.96 | MIC = 160 μM | 11.1 | MIC = 35 μM | 29.4 | MIC = 5 μM | 2.8 | MIC = 80 μM | 7.45 | 1.23 | 45 | titers of specific IgG2a against OVA vs OVA alone ([12]; OVA 5 μg + peptide 1 μg/animal, 21 days after first immunization, p<0.05): significantly greater; specific total IgG titer to OVA vs negative control group ([12]; OVA 5 μg + peptide 1 μg/animal, p<0.001): statistically superior; specific IgM titer against MY32 vs PBS, MY32 and MY32 + peptide 10 μg/fish [13]: statistically superior |
| IWDAIFHGAKHFLHRLVNPGGKDAVKDVQQKQ [Oreochromicin III, also recombinant or chemically synthesized] | Did not inhibit | MIC = 106 μM | 19.2 | MIC = 40 μM | 14.1 | Did not inhibit |  | MIC = 160 μM | 37 | Did not inhibit |  | Did not inhibit |  |  | 67.4 | 2.99 | 45 | total IgG titers compared to the negative control group ([12]; OVA 5 μg + peptide 1.4 μg/animal, p<0.05): statistically significant differences; levels of IFN-γ vs OVA or PBS alone ([11]; splenocytes stimulated with OVA 10 μg/mL, dose dependent, p<0.001): significantly higher |
